Source: patent US6429287B1, “Isolated molecules which complex with HLA-Cw*16 molecules, and uses thereof” (Ludwig Institute for Cancer Research, priority 1996, dated 2002)
Ends that are not written are not given here.

Assays:
HLA-Cw*1601 = HLA-Cw*1601 (Homo sapiens, UniProt P10321, /M331V/P208H/P217L/Q277E/Q291P/R121W/S123Y/S297R/S48A/T329A/T363A/V319A); details: disclosed in earlier applications Ser. No. 08/79,110 and 08/196,630; cited from earlier work
[1] = tested on: HLA-Cw*1601 positive lymphoblastoid cell line, i.e., LB678-EBV; test: 51Cr release assay: peptide-stimulated lysis by CTLs; format: cell-based, human; details: for ability of the peptide to stimulate lysis by CTLs: 51Cr labelled LB678-EBV target cells, peptide 15 minutes at room temperature, CTLs added, 51Cr release after four hours at 37° C.
Method: Based upon this hypothesis, a series of peptides were constructed, and lyophilized prior to testing. The lyophilized peptides were dissolved in 1 volume of DMSO, then 9 volumes of H2O, plus 10 mM of acetic acid. The thus diluted peptides were stored at −20° C.
The ability of the peptides to stimulate lysis by CTLs was tested via the ^51Cr release method of Boon et al., J. Exp. Med. 152: 1184-1193 (1980). Specifically, an HLA-Cw*1601 positive lymphoblastoid cell line, i.e., LB678-EBV was ^51Cr labelled for one hour at 37° C., and washed extensively. Then 1000 of these target cells were incubated in 96 well microplates, in the presence of various concentrations of peptide, for 15 minutes, at room temperature. CTLs were then added, and ^51Cr release was measured after four hours, at 37° C.

Row | Substance | ability of the peptide to stimulate lysis by CTLs [1] | other results
1 | AARAVFLAL [SEQ ID NO: 1, preferred BAGE-derived nonapeptide of earlier applications] |  | complexes with HLA-Cw*1601 and stimulates CTL 82/82 (HLA-Cw*1601): stimulating the cell line CTL 82/82
2 | amino acids 2-10 of SEQ ID NO: 5: nonamer consisting of amino acids 2-10 of SEQ ID NO: 5 (ISGGPRISY) |  | EC50 ([1]; 51Cr release, LB678-EBV target cells, CTLs, four hours at 37° C., FIG. 3, read-out: peptide concentration achieving half maximal lysis): 30 nM
3 | KISGGPRISYPL [SEQ ID NO: 5, corresponds to amino acids 126-137 of MAGE-6] | Lysis first occurred | 
4 | amino acids 3-10 of SEQ ID NO: 5: peptide consisting of amino acids 3-10 of SEQ ID NO: 5 (SGGPRISY) | neither one stimulated lysis | 
5 | amino acids 1-9 of SEQ ID NO: 5: peptide consisting of amino acids 1-9 of SEQ ID NO: 5 (KISGGPRIS) | neither one stimulated lysis | 
